Results: PubChem BioAssay AID328 (DTP/NCI, 2004)
Values joined by “and” are separate entries in the source; they are usually repeats but may differ in a detail not shown here. Equal entries are not always repeated. Toxic doses and inconclusive results are not listed.

Tested on: BDF1 mice, P388 leukemia ip, median survival T/C
Experiment: NCI In Vivo Anticancer Drug Screen. Data for tumor model P388 Leukemia (intraperitoneal) in B6D2F1 (BDF1) mice
Settings: endpoint: median survival time, higher = longer survival
Procedure, shortened: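 Mice carrying the transplantable tumour receive compound or vehicle. Survival is followed in each arm, and the treated measure is divided by the vehicle measure.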

C=CC(COC(C)=O)N1CC1 (centres undefined)
T/C (dose: 4.0 mg/kg/injection, schedule: Q01DX009 (ip), vehicle: saline): 104 % of control
T/C (dose: 6.0 mg/kg/injection, schedule: Q01DX009 (ip), vehicle: saline): 115 % of control
T/C (dose: 8.0 mg/kg/injection, schedule: Q01DX009 (ip), vehicle: saline): 112 % of control
T/C (dose: 12.0 mg/kg/injection, schedule: Q04DX003 (ip), vehicle: saline): 110 % of control
T/C (dose: 17.0 mg/kg/injection, schedule: Q01DX009 (ip), vehicle: saline): 116 % of control
T/C (dose: 25.0 mg/kg/injection, schedule: Q01DX009 (ip), vehicle: saline): 150 % of control and 165 % of control
T/C (dose: 25.0 mg/kg/injection, schedule: Q04DX003 (ip), vehicle: saline): 120 % of control
T/C (dose: 37.0 mg/kg/injection, schedule: Q01DX009 (ip), vehicle: saline): 180 % of control

Cc1cc(N(CCCl)CCCl)ccc1N=Nc1ccccc1C(=O)[O-].Cc1cc(N(CCCl)CCCl)ccc1N=Nc1ccccc1C(=O)[O-].[Cu+2]
T/C (dose: 16.5 mg/kg/injection, schedule: Q04DX003 (ip), vehicle: saline with Tween-80): 240 % of control and 105 % of control
T/C (dose: 25.0 mg/kg/injection, schedule: Q04DX003 (ip), vehicle: saline with Tween-80): 263 % of control and 165 % of control
T/C (dose: 37.5 mg/kg/injection, schedule: Q04DX003 (ip), vehicle: saline with Tween-80): 227 % of control

C=CCc1ccc(OCCOC(=O)Nc2cccc(SC)c2)c(OC)c1
T/C (dose: 12.5 mg/kg/injection, schedule: Q01DX009 (ip), vehicle: DMSO): 90 % of control
T/C (dose: 25.0 mg/kg/injection, schedule: Q01DX009 (ip), vehicle: DMSO): 107 % of control
T/C (dose: 50.0 mg/kg/injection, schedule: Q01DX009 (ip), vehicle: DMSO): 93 % of control

O=C(N=c1cc(-c2ccc(Cl)cc2)ss1)C(Cc1ccccc1)N1C(=O)c2ccccc2C1=O (centres undefined)
T/C (dose: 6.25 mg/kg/injection, schedule: Q01DX009 (ip), vehicle: water): 101 % of control
T/C (dose: 6.25 mg/kg/injection, schedule: Q04DX003 (ip), vehicle: water): 110 % of control
T/C (dose: 12.5 mg/kg/injection, schedule: Q01DX009 (ip), vehicle: water): 104 % of control
T/C (dose: 12.5 mg/kg/injection, schedule: Q04DX003 (ip), vehicle: water): 100 % of control
T/C (dose: 25.0 mg/kg/injection, schedule: Q01DX009 (ip), vehicle: water): 108 % of control
T/C (dose: 25.0 mg/kg/injection, schedule: Q04DX003 (ip), vehicle: water): 110 % of control
T/C (dose: 50.0 mg/kg/injection, schedule: Q01DX009 (ip), vehicle: water): 104 % of control
T/C (dose: 50.0 mg/kg/injection, schedule: Q04DX003 (ip), vehicle: water): 104 % of control
T/C (dose: 100.0 mg/kg/injection, schedule: Q01DX009 (ip), vehicle: water): 108 % of control
T/C (dose: 100.0 mg/kg/injection, schedule: Q04DX003 (ip), vehicle: water): 107 % of control
T/C (dose: 200.0 mg/kg/injection, schedule: Q01DX009 (ip), vehicle: water): 108 % of control

COc1cc(C=NC(CO)C(=O)O)ccc1O.COc1cc(C=NC(CO)C(=O)O)ccc1O.[Fe] (centres undefined)
T/C (dose: 100.0 mg/kg/injection, schedule: Q01DX009 (ip), vehicle: saline): 100 % of control
T/C (dose: 100.0 mg/kg/injection, schedule: Q04DX003 (ip), vehicle: saline): 100 % of control
T/C (dose: 200.0 mg/kg/injection, schedule: Q01DX009 (ip), vehicle: saline): 100 % of control
T/C (dose: 200.0 mg/kg/injection, schedule: Q04DX003 (ip), vehicle: saline): 95 % of control
T/C (dose: 400.0 mg/kg/injection, schedule: Q04DX003 (ip), vehicle: saline): 95 % of control

CCCCCCC(=O)CCCCCCCCCCCCC(=O)OC
T/C (dose: 1.56 mg/kg/injection, schedule: Q01DX009 (ip), vehicle: saline with Tween-80): 90 % of control
T/C (dose: 3.13 mg/kg/injection, schedule: Q01DX009 (ip), vehicle: saline with Tween-80): 100 % of control
T/C (dose: 6.25 mg/kg/injection, schedule: Q01DX009 (ip), vehicle: saline with Tween-80): 95 % of control

O=C1NC(Cc2ccc(N(CCCl)CCCl)cc2)C(=O)O1 (centres undefined)
T/C (dose: 0.06 mg/kg/injection, schedule: Q01DX009 (ip), vehicle: saline with Tween-80): 104 % of control
T/C (dose: 0.12 mg/kg/injection, schedule: Q01DX009 (ip), vehicle: saline with Tween-80): 150 % of control
T/C (dose: 0.2 mg/kg/injection, schedule: Q04DX003 (ip), vehicle: saline with Tween-80): 100 % of control
T/C (dose: 0.25 mg/kg/injection, schedule: Q01DX009 (ip), vehicle: saline with Tween-80): 159 % of control
T/C (dose: 0.3 mg/kg/injection, schedule: Q04DX003 (ip), vehicle: saline with Tween-80): 112 % of control
T/C (dose: 0.5 mg/kg/injection, schedule: Q01DX009 (ip), vehicle: saline with Tween-80): 168 % of control
T/C (dose: 0.5 mg/kg/injection, schedule: Q04DX003 (ip), vehicle: saline with Tween-80): 112 % of control
T/C (dose: 0.8 mg/kg/injection, schedule: Q04DX003 (ip), vehicle: saline with Tween-80): 154 % of control
T/C (dose: 1.0 mg/kg/injection, schedule: Q04DX003 (ip), vehicle: saline with Tween-80): 163 % of control
T/C (dose: 1.3 mg/kg/injection, schedule: Q04DX003 (ip), vehicle: saline with Tween-80): 159 % of control
T/C (dose: 2.0 mg/kg/injection, schedule: Q01DX009 (ip), vehicle: saline with Tween-80): 230 % of control
T/C (dose: 2.0 mg/kg/injection, schedule: Q04DX003 (ip), vehicle: saline with Tween-80): 168 % of control and 172 % of control
T/C (dose: 3.0 mg/kg/injection, schedule: Q04DX003 (ip), vehicle: saline with Tween-80): 200 % of control
T/C (dose: 3.4 mg/kg/injection, schedule: Q04DX003 (ip), vehicle: saline with Tween-80): 150 % of control
T/C (dose: 4.5 mg/kg/injection, schedule: Q04DX003 (ip), vehicle: saline with Tween-80): 222 % of control
T/C (dose: 5.2 mg/kg/injection, schedule: Q04DX003 (ip), vehicle: saline with Tween-80): 154 % of control
T/C (dose: 5.5 mg/kg/injection, schedule: Q01DX009 (ip), vehicle: saline with Tween-80): 230 % of control
T/C (dose: 8.0 mg/kg/injection, schedule: Q01DX009 (ip), vehicle: saline with Tween-80): 230 % of control
T/C (dose: 8.0 mg/kg/injection, schedule: Q04DX003 (ip), vehicle: saline with Tween-80): 195 % of control
T/C (dose: 12.0 mg/kg/injection, schedule: Q01DX009 (ip), vehicle: saline with Tween-80): 115 % of control
T/C (dose: 27.0 mg/kg/injection, schedule: Q04DX003 (ip), vehicle: saline with Tween-80): 272 % of control (2×) and 207 % of control
T/C (dose: 40.0 mg/kg/injection, schedule: Q04DX003 (ip), vehicle: saline with Tween-80): 157 % of control
T/C (dose: 60.0 mg/kg/injection, schedule: Q04DX003 (ip), vehicle: saline with Tween-80): 119 % of control

Cc1nc(N)sc1CCCl
T/C (dose: 10.0 mg/kg/injection, schedule: Q01DX009 (ip), vehicle: saline): 104 % of control
T/C (dose: 20.0 mg/kg/injection, schedule: Q01DX009 (ip), vehicle: saline): 104 % of control
T/C (dose: 40.0 mg/kg/injection, schedule: Q01DX009 (ip), vehicle: saline): 100 % of control
T/C (dose: 80.0 mg/kg/injection, schedule: Q01DX009 (ip), vehicle: saline): 113 % of control

CC(C)C(O)(C(=O)OCC1=CC[N+]2([O-])CCC(O)C12)C(C)O (centres undefined)
T/C (dose: 200.0 mg/kg/injection, schedule: Q01DX006 (ip), vehicle: water): 110 % of control
T/C (dose: 800.0 mg/kg/injection, schedule: Q01DX006 (ip), vehicle: water): 100 % of control
T/C (dose: 1600.0 mg/kg/injection, schedule: Q01DX006 (ip), vehicle: water): 94 % of control

COc1ccc(C2=NNc3n[nH]c(=S)n3N2)cc1OC
T/C (dose: 100.0 mg/kg/injection, schedule: Q04DX003 (ip), vehicle: saline with Tween-80): 100 % of control
T/C (dose: 200.0 mg/kg/injection, schedule: Q04DX003 (ip), vehicle: saline with Tween-80): 100 % of control
T/C (dose: 400.0 mg/kg/injection, schedule: Q04DX003 (ip), vehicle: saline with Tween-80): 91 % of control

C=C(COc1ccc(Cl)cc1)COc1ccc(Cl)cc1
T/C (dose: 50.0 mg/kg/injection, schedule: Q01DX001 (ip), vehicle: other): 103 % of control
T/C (dose: 50.0 mg/kg/injection, schedule: Q04DX003 (ip), vehicle: other): 100 % of control
T/C (dose: 100.0 mg/kg/injection, schedule: Q01DX001 (ip), vehicle: other): 100 % of control
T/C (dose: 100.0 mg/kg/injection, schedule: Q04DX003 (ip), vehicle: other): 91 % of control
T/C (dose: 200.0 mg/kg/injection, schedule: Q01DX001 (ip), vehicle: other): 94 % of control
T/C (dose: 200.0 mg/kg/injection, schedule: Q04DX003 (ip), vehicle: other): 101 % of control
T/C (dose: 400.0 mg/kg/injection, schedule: Q01DX001 (ip), vehicle: other): 102 % of control
T/C (dose: 400.0 mg/kg/injection, schedule: Q04DX003 (ip), vehicle: other): 93 % of control
